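A five-concentration, 48-hour dose response in 96-well plates underlies each endpoint, interpolated linearly between surrounding concentrations. Here, GI50 denotes the concentration required for 50% inhibition of growth.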 Activity calls are given as the source filed them. Rule as the data show it: active = GI50 up to about 1.1 µM and inactive = higher.

The record followed here is ChEMBL document CHEMBL1201862, “PubChem BioAssay data set” (2004).

Among the test systems are 786-0; CCRF-CEM; EKVX; HCT-116; IGROV-1; MDA-N; NCI-H23; OVCAR-5; SF-295; SNB-19; T47D; ACHN; NCI-H226; NCI-H522; PC-3; SF-539; TK-10; U-251; SK-MEL-2.
Holding throughout (experiment): NCI anticancer screen, dose series, 48 h

For the molecule `O=c1[nH]nc(-c2ccccc2)c2[nH]c(-c3ccccc3)cc12`, the GI50 in the experiment on 786-0, with CCRF-CEM, in the experiment on EKVX, in the experiment on HCT-116, with IGROV-1 and in the experiment with MDA-N was > 100 µM (inactive) in each case. Also, the GI50 in the experiment with NCI-H23 is > 100 µM (inactive); in the experiment with OVCAR-5, > 100 µM (inactive); in the experiment on SF-295, > 100 µM (inactive); in the experiment with SNB-19, > 100 µM (inactive); in the experiment on T47D, 25.5 µM (inactive).

On to `O=C1OCC2=Nc3cccc4cccc(c34)N12`, for which the GI50 is > 100 µM (inactive) with 786-0; > 100 µM (inactive) with ACHN; 49.8 µM (inactive) with CCRF-CEM; 57.1 µM (inactive) in the experiment with EKVX; > 100 µM (inactive) with HCT-116; > 100 µM (inactive) in the experiment with IGROV-1. Also, the GI50 in the experiment with NCI-H226 was > 100 µM (inactive); in the experiment with NCI-H23, > 100 µM (inactive); in the experiment on NCI-H522 it was 88.9 µM (inactive); in the experiment on PC-3, > 100 µM (inactive); with SF-295, > 100 µM (inactive); in the experiment on SF-539, > 100 µM (inactive). In addition, the GI50 in the experiment on SNB-19, with T47D, in the experiment on TK-10 and in the experiment on U-251 was > 100 µM (inactive) in each case.

With `c1ccc2c(c1)[nH]c1c[nH]c3c4cccnc4nc-3c12`, the GI50 is 17.1 µM (inactive) in the experiment on 786-0; 11.3 µM (inactive) with ACHN; 24.7 µM (inactive) in the experiment on CCRF-CEM; 19.9 µM (inactive) in the experiment on EKVX; 17.1 µM (inactive) in the experiment on HCT-116; 18.1 µM (inactive) in the experiment with IGROV-1. The GI50 in the experiment on NCI-H226 was 25.2 µM (inactive); in the experiment on NCI-H23, 25.5 µM (inactive); in the experiment on OVCAR-5, 20.3 µM (inactive); in the experiment with SF-295 it was 23.4 µM (inactive); in the experiment with SF-539, 21.4 µM (inactive); in the experiment on SNB-19, 18.3 µM (inactive). Moreover, the GI50 in the experiment with TK-10 was 12.7 µM (inactive).

As to `CC(C)OC(=O)[C@H]1ON2O[C@H](O[C@@H]3CCCC[C@H]3c3ccccc3)C([Si](C)(C)c3ccccc3)[C@H]3OC(=O)[C@@H]1C32` (stereo not given in full), the GI50 was > 100 µM (inactive) in the experiment on 786-0; > 100 µM (inactive) with ACHN; 94 µM (inactive) in the experiment with CCRF-CEM; > 100 µM (inactive) in the experiment with EKVX; > 100 µM (inactive) in the experiment with HCT-116; > 100 µM (inactive) in the experiment on IGROV-1. The GI50 in the experiment with NCI-H226 is > 100 µM (inactive); in the experiment with NCI-H23 it was > 100 µM (inactive); with NCI-H522 it was 81.3 µM (inactive); with PC-3 it was > 100 µM (inactive); with SF-295 it was > 100 µM (inactive); in the experiment with SF-539 it was > 100 µM (inactive). Besides, the GI50 in the experiment with SK-MEL-2 was > 100 µM (inactive); with SNB-19, > 100 µM (inactive); in the experiment with T47D, 87.5 µM (inactive); with TK-10, > 100 µM (inactive); in the experiment with U-251, > 100 µM (inactive).

`Cc1c(NC(=O)c2cc([N+](=O)[O-])cc([N+](=O)[O-])c2)c(=O)n(-c2ccccc2)n1C`: the GI50 in the experiment on 786-0 was > 100 µM (inactive); in the experiment on CCRF-CEM, > 100 µM (inactive); in the experiment with HCT-116, > 100 µM (inactive); in the experiment with IGROV-1, 48.8 µM (inactive); with MDA-N, > 100 µM (inactive); with NCI-H226, > 100 µM (inactive). Further, the GI50 in the experiment with NCI-H23 was > 100 µM (inactive); in the experiment with PC-3, 49.8 µM (inactive); in the experiment on SF-539 it was 69.8 µM (inactive); with SK-MEL-2 it was > 100 µM (inactive); in the experiment on SNB-19 it was > 100 µM (inactive); with TK-10 it was > 100 µM (inactive). In addition, in the experiment on U-251, the GI50 is > 100 µM (inactive).

In the case of `Nc1cnc2c(c1)c(=O)nc1n2CCS1`, the GI50 in the experiment on 786-0 is > 100 µM (inactive); in the experiment with ACHN, > 100 µM (inactive); in the experiment on CCRF-CEM, 77.6 µM (inactive); in the experiment on EKVX, 39.3 µM (inactive); in the experiment with HCT-116, > 100 µM (inactive); in the experiment with MDA-N it was > 100 µM (inactive). Besides, the GI50 in the experiment with NCI-H226, in the experiment with NCI-H23, in the experiment on OVCAR-5, with PC-3, in the experiment with SF-295 and with SF-539 was > 100 µM (inactive) in each case. For the same molecule, the GI50 with SK-MEL-2, with SNB-19, with TK-10 and in the experiment with U-251 was > 100 µM (inactive) in each case.

On to `N#CCCC(CC#N)N1CCN(CCO)CC1` (stereo not given), for which the GI50 in the experiment on 786-0, in the experiment on ACHN, with CCRF-CEM, in the experiment with EKVX, in the experiment with HCT-116 and in the experiment on IGROV-1 was > 100 µM (inactive) each time. In addition, the GI50 with NCI-H226, in the experiment with NCI-H23, in the experiment with OVCAR-5, in the experiment with SF-295, in the experiment on SF-539 and in the experiment on SNB-19 was > 100 µM (inactive) in each case. Moreover, the GI50 with T47D, in the experiment on TK-10 and with U-251 was > 100 µM (inactive) each time.

Consider `CN(/N=C/c1ccnc2ccccc12)c1ccc(Cl)cc1[N+](=O)[O-]`, for which the GI50 in the experiment with 786-0 was 49.9 µM (inactive); with ACHN it was > 100 µM (inactive); in the experiment with CCRF-CEM, 50 µM (inactive); with EKVX, 12.2 µM (inactive); with HCT-116, > 100 µM (inactive); in the experiment with IGROV-1, > 100 µM (inactive). Further, the GI50 in the experiment on MDA-N was > 100 µM (inactive); with NCI-H226, > 100 µM (inactive); in the experiment with NCI-H23, 8.57 µM (inactive); with NCI-H522, > 100 µM (inactive); in the experiment with OVCAR-5 it was > 100 µM (inactive); in the experiment on PC-3, > 100 µM (inactive). The GI50 with SF-295 was 15.1 µM (inactive); in the experiment on SF-539, 24.4 µM (inactive); with SK-MEL-2 it was > 100 µM (inactive); with SNB-19, > 100 µM (inactive); with TK-10, 35.6 µM (inactive); in the experiment on U-251 it was > 100 µM (inactive).

As to `O=C(CC(=O)N1N=C(N(c2ccccc2)c2ccccc2)CC1c1ccccc1)Nc1ccccc1` (stereo not given), the GI50 in the experiment on 786-0 is 81.7 µM (inactive); with ACHN it was > 100 µM (inactive); with CCRF-CEM it was > 100 µM (inactive); in the experiment on EKVX it was > 100 µM (inactive); with HCT-116, > 100 µM (inactive); in the experiment on IGROV-1, > 100 µM (inactive). For the same molecule, the GI50 in the experiment with NCI-H226 was > 100 µM (inactive); in the experiment on NCI-H23, > 100 µM (inactive); in the experiment on NCI-H522, 64.1 µM (inactive); with OVCAR-5, > 100 µM (inactive); with PC-3, > 100 µM (inactive); in the experiment with SF-295, 66.7 µM (inactive). For the same molecule, the GI50 in the experiment on SF-539 is > 100 µM (inactive); in the experiment on SK-MEL-2, > 100 µM (inactive); in the experiment on SNB-19 it was 78 µM (inactive); with T47D, > 100 µM (inactive); with TK-10, > 100 µM (inactive); in the experiment with U-251, 56.6 µM (inactive).

As to `Oc1ccc2c(c1)c1c(n2CCN2CCOCC2)-c2ccccc2CC1`, the GI50 with 786-0 is 57.8 µM (inactive); with ACHN it was 28.2 µM (inactive); in the experiment with CCRF-CEM, 32.3 µM (inactive); with EKVX, 35.5 µM (inactive); with HCT-116, 37.2 µM (inactive); in the experiment on IGROV-1, 15.1 µM (inactive). The GI50 in the experiment on MDA-N was 45.4 µM (inactive); in the experiment with NCI-H226 it was 30.7 µM (inactive); in the experiment with NCI-H23, 27.8 µM (inactive); in the experiment on OVCAR-5, 24.4 µM (inactive); in the experiment with PC-3, 29.2 µM (inactive); in the experiment with SF-295, 36.4 µM (inactive). Moreover, the GI50 in the experiment with SF-539 is 21.3 µM (inactive); in the experiment on SK-MEL-2, 23.1 µM (inactive); in the experiment on SNB-19, 24.8 µM (inactive); in the experiment with TK-10, 29.4 µM (inactive); in the experiment with U-251 it was 25.6 µM (inactive).

In the case of `C[C@]12CC[C@H](O)CC1CCC[C@@H]2O` (stereo not given in full), the GI50 in the experiment with 786-0, in the experiment with CCRF-CEM, in the experiment with EKVX, in the experiment on HCT-116, with IGROV-1 and in the experiment with NCI-H23 was > 100 µM (inactive) throughout. For the same molecule, the GI50 in the experiment with NCI-H522, in the experiment on SF-295, in the experiment with SF-539, in the experiment with SK-MEL-2, with SNB-19 and with TK-10 was > 100 µM (inactive) throughout. For the same molecule, the GI50 in the experiment on U-251 was > 100 µM (inactive).

In the case of `COc1ccc2c(c1)/C(=C\c1cccc(/C=C3/C(=O)Nc4ccc(OC)cc43)n1)C(=O)N2`, the GI50 is 0.964 µM (active) in the experiment on 786-0; 1.71 µM (inactive) in the experiment on ACHN; 0.421 µM (active) with CCRF-CEM; 2.84 µM (inactive) in the experiment on EKVX; 0.352 µM (active) in the experiment on HCT-116; 0.925 µM (active) in the experiment with NCI-H23. Further, the GI50 is 0.861 µM (active) in the experiment with NCI-H522; 1.01 µM (active) in the experiment on OVCAR-5; 1.32 µM (inactive) in the experiment with PC-3; 2.47 µM (inactive) with SF-295; 1.42 µM (inactive) with SF-539; 3.01 µM (inactive) in the experiment on SK-MEL-2. The GI50 is 0.805 µM (active) with SNB-19, 0.381 µM (active) in the experiment on T47D, 1.73 µM (inactive) in the experiment on TK-10 and 0.461 µM (active) in the experiment with U-251.

Turning to `Nc1ccccc1-n1c2c(c3ccccc3c1=O)C(=O)c1ccccc1-2`, the GI50 is 7.62 µM (inactive) with 786-0; 5.53 µM (inactive) with ACHN; 48.9 µM (inactive) in the experiment on CCRF-CEM; 27.6 µM (inactive) with EKVX; 20.8 µM (inactive) with HCT-116; 9.68 µM (inactive) in the experiment with IGROV-1. Also, the GI50 in the experiment with NCI-H226 is < 0.01 µM (active); with NCI-H23, 7.5 µM (inactive); in the experiment on NCI-H522 it was 6.58 µM (inactive); in the experiment with OVCAR-5, > 100 µM (inactive); in the experiment on PC-3, 16.1 µM (inactive); with SF-295, 9.1 µM (inactive). For the same molecule, the GI50 with SF-539 is 3.13 µM (inactive); with SK-MEL-2, 19.9 µM (inactive); with SNB-19, 5 µM (inactive); in the experiment with TK-10, > 10 µM (inactive); with U-251, 15.2 µM (inactive).
